Literature values as cited in PMC8202924, “Emodepside targets SLO-1 channels of Onchocerca ochengi and induces broad anthelmintic effects in a bovine model of onchocerciasis” (PLoS Pathogens, 2021).

Tested on: O. volvulus
Details: from ~10 years to 2–3 years; cited from earlier work

C[C@H]1c2cccc(O)c2C(=O)C2=C(O)[C@]3(O)C(=O)C(C(N)=O)=C(O)[C@@H](N(C)C)[C@@H]3[C@@H](O)[C@@H]21 [doxycycline]
Reduction in worm lifespan: 70–80%
